Test system: rats
Test: Induction of diabetes by intravenous streptozotocin
Assay type: in vivo, rat
Conditions: 50 mg/kg intravenous injection
Procedure: Diabetes was induced by intravenous injection with 50 mg/kg streptozotocin (STZ), which reduced pancreatic insulin content by 95%. One week later, STZ diabetic rats (of weight 200–250 g) were administered either the vehicle alone as a control (labeled CON in FIG. 1), or were administered a combination of human gastrin 17 (4 μg/kg) and human TGFα (4 μg/kg) peptides (labeled GAS/TGF) by once-daily, intraperitoneal injections for 12 days. At 1, 2, 4 and 8 weeks after treatment, intraperitoneal glucose tolerance tests (IPGTT) were performed, to measure both blood glucose levels, and plasma insulin levels, in response to a challenge amount of glucose.

How did the “reduction of pancreatic insulin content” value turn out when `CN(N=O)C(=O)N[C@H]1C(O)O[C@H](CO)[C@@H](O)[C@@H]1O` (mixture of isomers) [streptozotocin] was run?
Its value is 95%.

Source: patent publication US6992060B2, “Prolonged efficacy of islet neogenesis therapy methods with a gastrin/CCK receptor ligand and an EGF receptor ligand composition in subjects with preexisting diabetes” (Waratah Pharmaceuticals, Inc., priority 2001, dated 2006)
